# Data: patent publication US3985875A, “ω-(N-acylamino)alkylphosphoryl ethanolamines, pharmaceutical compositions containing them, and their uses” (Dainippon Pharmaceutical Co., Ltd., priority 1974, dated 1976)
# Read-outs that look alike come from different tables or passages of the source.
# Experiments:
# Renin = target: T1, Renin (Homo sapiens, UniProt P00797); assay: Renin-inhibitory activity, Method I (inhibition of Angiotensin I formation, RIA); format: biochemical; conditions: for inhibition at 313 µg/mL: 0.313 mg/ml; for inhibition at 625 µg/mL: 0.625 mg/ml; for inhibition at 1250 µg/mL: 1.25 mg/ml; for inhibition at 2500 µg/mL: 2.5 mg/ml
# T1 sequence (P00797 67-406): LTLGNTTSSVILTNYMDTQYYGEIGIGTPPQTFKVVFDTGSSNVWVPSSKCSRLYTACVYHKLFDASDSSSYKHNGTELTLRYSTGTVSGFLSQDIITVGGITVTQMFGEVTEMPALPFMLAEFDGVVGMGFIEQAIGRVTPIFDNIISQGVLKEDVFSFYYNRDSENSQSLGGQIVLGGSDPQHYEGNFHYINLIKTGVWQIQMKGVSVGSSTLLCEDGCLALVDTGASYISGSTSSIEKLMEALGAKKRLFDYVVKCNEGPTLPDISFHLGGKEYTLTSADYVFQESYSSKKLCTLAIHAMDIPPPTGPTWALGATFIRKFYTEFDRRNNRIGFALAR
# Method: Renin (see E. Haas et al. Circulation Research, Vol. 19, p. 739, 1966 and Vol. 31, p. 65, 1972) was incubated in Angiotensinogen at 37° C. for 2 to 6 hours. Similarly, renin was incubated under the same conditions in the presence of 0.313 to 2.5 mg/ml. of each of the test compounds listed above. The amount of Angiotensin I was measured by radioimmunoassay (RIA) (E. Haber et al., J. Clin. Endocrinol., Vol. 29, p. 1349, 1969), and made the renin activity.
# (§1) The results are shown in Table 1 (the rate of inhibiting the formation of Angiotensin I, as determined by Method I, when the plasma was incubated at 37° C. for 2, 4 and 6 hours respectively), and Table 2 (the rate of inhibiting the formation of Angiotensin I when the plasma was incubated at 37° C. for 4 hours, with the compound concentration of 1.25 mg/ml.)
# High renin plasma = target: T2, High renin plasma (Canis lupus familiaris, UniProt Q6DYE7); assay: Renin-inhibitory activity, Method II (high renin plasma of dog, inhibition of Angiotensin I formation); format: biochemical; conditions: Table 2; 37°C, 4 hours, 1.25 mg/ml; read-out: Rate of inhibiting the formation of Angiotensin I determined by Method II
# T2 construct: High renin plasma prepared by constriction of the renal artery of a dog anesthetized with Nembutal; from tissue; host or cells: plasma of a dog with constricted renal artery
# T2 sequence (Q6DYE7 66-403): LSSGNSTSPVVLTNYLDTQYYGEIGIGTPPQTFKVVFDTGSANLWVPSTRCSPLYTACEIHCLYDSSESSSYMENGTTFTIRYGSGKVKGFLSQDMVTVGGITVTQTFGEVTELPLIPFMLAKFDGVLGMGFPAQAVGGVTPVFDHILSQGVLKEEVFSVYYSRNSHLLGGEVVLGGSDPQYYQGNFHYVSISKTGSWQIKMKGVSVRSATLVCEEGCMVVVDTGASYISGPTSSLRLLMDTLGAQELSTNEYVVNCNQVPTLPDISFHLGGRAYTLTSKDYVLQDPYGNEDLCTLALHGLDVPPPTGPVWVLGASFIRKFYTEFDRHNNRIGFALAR
# Method: High renin plasma prepared by constriction of the renal artery of a dog anesthetized with Nembutal (the plasma which when incubated at 37°40 C. for 6 hours, yields 30 to […]. of Angiotensin I) was incubated at 37° C. for 2 to 6 hours in the same way as in Method I, and also under the same conditions in the presence of 1.25 mg/ml. of each of the test compounds.
# as §1
# renal hypertensive rats [1] = assay: Antihypertensive activity in renal hypertensive rats, i.m. (Table 3); format: in vivo, rat; conditions: 30 mg/kg/day i.m.
# Method: (§2) An aqueous solution or suspension in peanut oil of each test compound as administered intramuscularly (i.m.) or orally (p.o.) at a dose of 30 to 100 mg/kg (body weight)/day once every morning over the period of 6 to 7 days.
# (§3) The blood pressure of each rat was measured daily before and 5 hours after each administration. Furthermore, the blood pressure was measured every morning after drug withdrawal over a period of 3 to 6 days.
# (§4) Test compounds (1)-(4) decreased the blood pressure of renal hypertensive rats with a dose of 30 mg/kg/day i.m.. […] The antihypertensive rats with a dose of 100 mg/kg/day p.o..
# renal hypertensive rats [2] = assay: Antihypertensive activity in rats, p.o. (Table 4); format: in vivo, rat; conditions: 100 mg/kg/day p.o.
# Method: as §2, §3, §4
# plasma cholesterol level = assay: Cholesterol-lowering activity in rats (modified Greenberg method); format: in vivo, rat; conditions: 100 mg/Kg oral once a day, 5 consecutive days
# Method: The effect of each of the test compounds on the plasma cholesterol level was examined in rats according to a slightly modified form of the C. M. Greenberg et al. method described in Am. J. Physiol., Vol. 202 (1961), p. 732. Rats were treated once a day with a 100 mg/Kg oral dose for 5 consecutive days instead of 7 days.
# [3] = incubating time 2 hours, read-out: Rate of inhibiting the formation of Angiotensin I
# [4] = incubating time 4 hours, read-out: Rate of inhibiting the formation of Angiotensin I
# [5] = incubating time 6 hours, read-out: Rate of inhibiting the formation of Angiotensin I
# [6] = Table 2, 37°C, 4 hours, read-out: Rate of inhibiting the formation of Angiotensin I determined by Method I
# [7] = 1st day, 0 h (immediately before administration)
# [8] = 1st day, 5 hours after administration
# [9] = 2nd day, 0 h (immediately before administration)
# [10] = 2nd day, 5 hours after administration
# [11] = 3rd day, 0 h (immediately before administration)
# [12] = 3rd day, 5 hours after administration
# [13] = 4th day, 0 h (immediately before administration)
# [14] = 4th day, 5 hours after administration
# [15] = 5th day, 0 h (immediately before administration)
# [16] = 5th day, 5 hours after administration
# [17] = 6th day, 0 h (immediately before administration)
# [18] = 6th day, 5 hours after administration
# [19] = 7th day, 0 h (immediately before administration)
# [20] = 7th day, 5 hours after administration
SMILES,inhibition at 313 µg/mL (Renin; [3]) [%],inhibition at 313 µg/mL (Renin; [4]) [%],inhibition at 313 µg/mL (Renin; [5]) [%],inhibition at 625 µg/mL (Renin; [3]) [%],inhibition at 625 µg/mL (Renin; [4]) [%],inhibition at 625 µg/mL (Renin; [5]) [%],inhibition at 1250 µg/mL (Renin; [3]) [%],inhibition at 1250 µg/mL (Renin; [4]) [%],inhibition at 1250 µg/mL (Renin; [5]) [%],inhibition at 2500 µg/mL (Renin; [3]) [%],inhibition at 2500 µg/mL (Renin; [4]) [%],inhibition at 2500 µg/mL (Renin; [5]) [%],inhibition at 1250 µg/mL (Renin; [6]) [%],inhibition at 1250 µg/mL (High renin plasma) [%],Changes of blood pressure after drug withdrawal (renal hypertensive rats [2]; 1st day after withdrawal) [mmHg],Changes of blood pressure (renal hypertensive rats [2]; [7]) [mmHg],Changes of blood pressure (renal hypertensive rats [2]; [8]),Changes of blood pressure after drug withdrawal (renal hypertensive rats [2]; 2nd day after withdrawal) [mmHg],Changes of blood pressure (renal hypertensive rats [2]; [10]) [mmHg],Changes of blood pressure after drug withdrawal (renal hypertensive rats [2]; 3rd day after withdrawal) [mmHg],other results
"CCC=CCC=CCC=CCCCCCCCC(=O)NCCCOP(=O)(O)OCCN [Compound (2), 3-(Octadeca-9,12,15-trienoylamino)propylphosphoryl ethanolamine]",25,27,22,50,45,47,75,78,80,93,100,100,78,59,,,,,,,Changes of blood pressure after drug withdrawal (renal hypertensive rats [1]; 1st day after withdrawal): -34 mmHg; Changes of blood pressure (renal hypertensive rats [1]; [7]): 0 mmHg; Changes of blood pressure (renal hypertensive rats [1]; [8]): -17 mmHg; Changes of blood pressure after drug withdrawal (renal hypertensive rats [1]; 2nd day after withdrawal): -21 mmHg; Changes of blood pressure (renal hypertensive rats [1]; [9]): -1 mmHg; Changes of blood pressure (renal hypertensive rats [1]; [10]): -26 mmHg; Changes of blood pressure after drug withdrawal (renal hypertensive rats [1]; 3rd day after withdrawal): -7 mmHg; Changes of blood pressure (renal hypertensive rats [1]; [11]): -20 mmHg; Changes of blood pressure (renal hypertensive rats [1]; [12]): -31 mmHg; Changes of blood pressure (renal hypertensive rats [1]; [13]): -22 mmHg; Changes of blood pressure (renal hypertensive rats [1]; [14]): -34 mmHg; Changes of blood pressure (renal hypertensive rats [1]; [15]): -23 mmHg; Changes of blood pressure (renal hypertensive rats [1]; [16]): -39 mmHg; Changes of blood pressure (renal hypertensive rats [1]; [17]): -29 mmHg; Changes of blood pressure (renal hypertensive rats [1]; [18]): -44 mmHg
"NCCOP(=O)(O)OCCNC(=O)COc1ccc(Oc2ccc(Cl)cc2)cc1 [Compound (5), 2-[4-(4'-chlorophenoxy)phenoxyacetylamino]ethylphosphoryl ethanolamine]",0,33,40,50,50,53,75,80,80,100,93,92,78,56,-49,0,+1 mmHg,-34,-9,-26,Changes of blood pressure (renal hypertensive rats [2]; [11]): -17 mmHg; Changes of blood pressure (renal hypertensive rats [2]; [12]): -44 mmHg; Changes of blood pressure after drug withdrawal (renal hypertensive rats [2]; 4th day after withdrawal): -21 mmHg; Changes of blood pressure (renal hypertensive rats [2]; [13]): -21 mmHg; Changes of blood pressure (renal hypertensive rats [2]; [14]): -41 mmHg; Changes of blood pressure after drug withdrawal (renal hypertensive rats [2]; 5th day after withdrawal): -15 mmHg; Changes of blood pressure (renal hypertensive rats [2]; [15]): -34 mmHg; Changes of blood pressure (renal hypertensive rats [2]; [16]): -43 mmHg; Changes of blood pressure after drug withdrawal (renal hypertensive rats [2]; 6th day after withdrawal): -7 mmHg; Changes of blood pressure (renal hypertensive rats [2]; [17]): -37 mmHg; Changes of blood pressure (renal hypertensive rats [2]; [18]): -49 mmHg; Changes of blood pressure (renal hypertensive rats [2]; [19]): -40 mmHg; Changes of blood pressure (renal hypertensive rats [2]; [20]): -49 mmHg; Cholesterol-lowering activity (plasma cholesterol level): 48.6%
"CC(Oc1ccc(Oc2ccc(Cl)cc2)cc1)C(=O)NCCOP(=O)(O)OCCN (stereo not drawn) [Compound (6), 2-{α-[4-(4'-chlorophenoxy)phenoxy]propionylamino} ethylphosphoryl ethanolamine]",25,33,33,50,56,53,75,78,67,100,93,89,78,55,-37,0,-9 mmHg,-32,-4,-18,Changes of blood pressure (renal hypertensive rats [2]; [9]): +4 mmHg; Changes of blood pressure (renal hypertensive rats [2]; [11]): -14 mmHg; Changes of blood pressure (renal hypertensive rats [2]; [12]): -25 mmHg; Changes of blood pressure after drug withdrawal (renal hypertensive rats [2]; 4th day after withdrawal): -8 mmHg; Changes of blood pressure (renal hypertensive rats [2]; [13]): -18 mmHg; Changes of blood pressure (renal hypertensive rats [2]; [14]): -27 mmHg; Changes of blood pressure after drug withdrawal (renal hypertensive rats [2]; 5th day after withdrawal): -2 mmHg; Changes of blood pressure (renal hypertensive rats [2]; [15]): -27 mmHg; Changes of blood pressure (renal hypertensive rats [2]; [16]): -41 mmHg; Changes of blood pressure after drug withdrawal (renal hypertensive rats [2]; 6th day after withdrawal): +1 mmHg; Changes of blood pressure (renal hypertensive rats [2]; [17]): -34 mmHg; Changes of blood pressure (renal hypertensive rats [2]; [18]): -47 mmHg; Changes of blood pressure (renal hypertensive rats [2]; [19]): -36 mmHg; Changes of blood pressure (renal hypertensive rats [2]; [20]): -51 mmHg; Cholesterol-lowering activity (plasma cholesterol level): 48.1%
